Each block holds one compound with its values, some of them ahead of it.
Experiment: solvent given as SMILES
[1] = in c1ccc2c(c1)c1ccccc1n2-c1ccc(-c2ccc(-n3c4ccccc4c4ccccc43)cc2)cc1

Structure (SMILES): C=CCOC(=O)C(C#N)=C1C=C(/C=C/c2ccc(N(C)C)cc2)OC(/C=C/c2ccc(N(C)C)cc2)=C1
emission maximum (in C1CCOC1): 595 nm
emission maximum (in C1COCCO1): 564 nm
emission maximum (in CC#N): 624 nm
emission maximum (in CN(C)C=O): 616 nm
emission maximum (in Cc1ccccc1): 556 nm
emission maximum (in ClC(Cl)Cl): 585 nm
emission maximum (in ClCCCl): 614 nm
emission maximum (in ClCCl): 601 nm

Structure (SMILES): c1ccc(-c2nnc(-c3ccc(-n4c5ccccc5c5ccccc54)cc3)o2)cc1
emission maximum (in CCO): 440 nm
emission maximum (in Cc1ccccc1): 387 nm

emission maximum (in C1CCOC1): 642 nm
Structure (SMILES): Cc1ccc(C2=C3C=C4C(=[N+]3[B-](F)(F)n3c2cc2c3-c3ccccc3C23c2ccccc2-c2ccccc23)c2ccccc2C42c3ccccc3-c3ccccc32)cc1

Structure (SMILES): CCCCC1(c2ccccc2)Nc2c(-c3ccc(N(C)c4ccccc4)cc3)ccc(-c3ccc(N(C)c4ccccc4)cc3)c2N=C1c1ccccc1 (configuration not stated)
emission maximum (in C1CCOC1): 580 nm
emission maximum (in CC#N): 602 nm
emission maximum (in CCCCCC): 553 nm
emission maximum (in CN(C)C=O): 603 nm
emission maximum (in Cc1ccccc1): 573 nm
emission maximum (in ClC(Cl)Cl): 589 nm

emission maximum (in ClC(Cl)Cl): 626 nm
Structure (SMILES): CCCC1=CC2=C(c3c(C)cc(C)cc3C)c3cc(CCC)c(-c4ccc5ccc6cccc7ccc4c5c67)n3[B-](F)(F)[N+]2=C1c1ccc2ccc3cccc4ccc1c2c34

emission maximum (in CO): 651 nm
emission maximum (in ClC(Cl)Cl): 666 nm
Structure (SMILES): CC[n+]1c(C=C2C(=O)C(C=C3N(C)c4ccccc4C3(C)C)=C2[O-])sc2ccccc21

Structure (SMILES): N#Cc1ccc2c(c1)CCc1nc(-c3ccc([N+](=O)[O-])cc3)c3c(c1-2)CCc1cc(C#N)ccc1-3
emission maximum (in C1CCOC1): 469 nm
emission maximum (in CC#N): 525 nm
emission maximum (in CCCCCC): 413 nm
emission maximum (in CCOC(C)=O): 452 nm
emission maximum (in CO): 475 nm
emission maximum (in CS(C)=O): 510 nm
emission maximum (in Cc1ccccc1): 443 nm
emission maximum (in ClCCl): 475 nm

Structure (SMILES): O=C1c2ccc(N(c3ccccc3)c3ccccc3)cc2C(=O)c2ccc(N(c3ccccc3)c3ccccc3)cc21
emission maximum (in Cc1ccccc1): 601 nm
emission maximum [1]: 593 nm

emission maximum (in ClCCl): 487 nm
Structure (SMILES): CCCCCCn1c(=O)c2c3oc4ccccc4oc3c3c(=O)n(CCCCCC)c(=O)c3c2c1=O

emission maximum (in C1COCCO1): 555 nm
emission maximum (in CC#N): 643 nm
emission maximum (in ClCCl): 601 nm
Structure (SMILES): CN(C)c1ccc(/C=C/c2nc3cc(Br)ccc3nc2-c2ccccc2)cc1

emission maximum (in O): 385 nm
Structure (SMILES): O=c1ccc2ccccc2o1

Structure (SMILES): CCCCCCCCC1(CCCCCCCC)c2cc(C=O)ccc2-c2ccc(/C=C/c3ccc(N(c4ccccc4)c4ccccc4)cc3)cc21
emission maximum (in C1CCOC1): 451 nm
emission maximum (in C1COCCO1): 450 nm
emission maximum (in CC#N): 486 nm
emission maximum (in CC(C)=O): 481 nm
emission maximum (in CCCCCC): 442 nm
emission maximum (in CCOC(C)=O): 456 nm
emission maximum (in CN(C)C=O): 490 nm
emission maximum (in CS(C)=O): 485 nm
emission maximum (in Cc1ccccc1): 451 nm
emission maximum (in ClC(Cl)Cl): 459 nm
emission maximum (in ClCCl): 469 nm

emission maximum (in ClCCl): 450 nm
Structure (SMILES): Cc1ccc(C(=O)c2c(C)c3ccc4cccc5c6cccc7ccc2c(c76)c3c45)cc1

emission maximum (in CS(C)=O): 565 nm
Structure (SMILES): CCCCN1/C(=C/C=C/C2=[N+](C)c3ccccc3C2(C)C)C(C)(C)c2ccccc21

Structure (SMILES): CC(C)[Si]1(C(C)C)c2cc(C=O)ccc2-c2ccc(N(C)C)cc21
emission maximum (in C1CCCCC1): 414 nm
emission maximum (in CC#N): 528 nm
emission maximum (in CCO): 565 nm
emission maximum (in CCOCC): 449 nm
emission maximum (in CS(C)=O): 541 nm
emission maximum (in ClCCl): 501 nm
emission maximum (in c1ccccc1): 450 nm

emission maximum (in ClCCl): 567 nm
Structure (SMILES): CCOCCOCCOC(=O)/C=C/C1=CC2=C(c3c(C)cc(C)cc3C)c3cccn3[B-](F)(F)[N+]2=C1

Structure (SMILES): CCN(CC)c1ccc2cc(-c3csc(NC(C)=O)c3C#N)c(=O)oc2c1
emission maximum (in C1CCOC1): 457 nm
emission maximum (in CO): 477 nm
emission maximum (in CS(C)=O): 479 nm
emission maximum (in Cc1ccccc1): 448 nm
emission maximum (in ClCCl): 463 nm

emission maximum (in CC#N): 478 nm
emission maximum (in ClCCl): 473 nm
Structure (SMILES): COC(=O)c1cc(=O)n(C)c2cc(-c3ccc4c(c3)OCCO4)sc12

Structure (SMILES): C(=C\c1cc(/C=C/c2ccc(N(c3ccccc3)c3ccccc3)cc2)nc(/C=C/c2ccc(N(c3ccccc3)c3ccccc3)cc2)n1)/c1ccc(N(c2ccccc2)c2ccccc2)cc1
emission maximum (in C1CCOC1): 514 nm
emission maximum (in CC#N): 589 nm
emission maximum (in CC(C)=O): 555 nm
emission maximum (in CCCCCCC): 460 nm
emission maximum (in CS(C)=O): 586 nm
emission maximum (in Cc1ccccc1): 479 nm
emission maximum (in ClCCl): 544 nm

emission maximum (in ClCCl): 483 nm
Structure (SMILES): CCCCCCOc1ccc(-c2ccc(/C=C/c3cc(/C=C/c4ccc(-c5ccc(OCCCCCC)cc5)cc4)ncn3)cc2)cc1

Structure (SMILES): N#Cc1c(-n2c3ccc(-c4ccccc4)cc3c3cc(-c4ccccc4)ccc32)c(-n2c3ccc(-c4ccccc4)cc3c3cc(-c4ccccc4)ccc32)c(C#N)c(-n2c3ccc(-c4ccccc4)cc3c3cc(-c4ccccc4)ccc32)c1-n1c2ccc(-c3ccccc3)cc2c2cc(-c3ccccc3)ccc21
emission maximum (in Cc1ccccc1): 577 nm

Structure (SMILES): CC1=CC(C)=[N+]2C1=C(c1ccc(-c3ccc(OS(=O)(=O)c4ccc([N+](=O)[O-])cc4[N+](=O)[O-])cc3)s1)c1c(C)cc(C)n1[B-]2(F)F
emission maximum (in CO): 523 nm
emission maximum (in Cc1ccccc1): 530 nm
emission maximum (in ClCCl): 528 nm

emission maximum (in CCCCCCC): 410 nm
Structure (SMILES): c1cc2c3c(cccc3c1)-c1cc3c(ccc4ccccc43)cc1-2

emission maximum (in C1CCOC1): 399 nm
Structure (SMILES): F[Si-](F)(c1ccccc1)(c1ccccc1)c1c2ccccc2cc2ccccc12

Structure (SMILES): CCCCCCc1ccsc1-c1ccc(-c2sc(C(=O)O)cc2CCCCCC)s1
emission maximum (in CC(C)=O): 468 nm
emission maximum (in CCCCCC): 458 nm
emission maximum (in CCO): 451 nm
emission maximum (in CO): 451 nm
emission maximum (in ClCCl): 479 nm
emission maximum (in O): 490 nm

Structure (SMILES): c1ccc(-c2nc(-c3cc(-n4c5ccccc5c5ccccc54)cc(-n4c5ccccc5c5ccccc54)c3)nc(-c3cc(-n4c5ccccc5c5ccccc54)cc(-n4c5ccccc5c5ccccc54)c3)n2)cc1
emission maximum (in C1CCCCC1): 438.78 nm
emission maximum (in C1CCOC1): 595.92 nm
emission maximum (in Cc1ccccc1): 504.9 nm

emission maximum (in ClCCl): 448 nm
Structure (SMILES): COC(=O)c1ccc(C(=O)NC(C)(C)C)c2c1ccc1c3ccccc3c3ccccc3c12

emission maximum (in C1CCCCC1): 411 nm
emission maximum (in CC#N): 420 nm
emission maximum (in CO): 414 nm
emission maximum (in ClCCl): 420 nm
Structure (SMILES): C(C#Cc1ccc2ccc3cccc4ccc1c2c34)#Cc1cccc2ccccc12

emission maximum (in ClC(Cl)Cl): 793 nm
Structure (SMILES): CC(C)(C)c1ccc(C2=c3sc(-c4ccc(C(C)(C)C)cc4)cc3=[N+]3C2=Nc2c(-c4ccc(C(C)(C)C)cc4)c4sc(-c5ccc(C(C)(C)C)cc5)cc4n2[B-]3(F)F)cc1

emission maximum (in ClC(Cl)Cl): 728 nm
Structure (SMILES): CCCCCCCCC1(CCCCCCCC)c2cc3c(cc2-c2sc(-c4ccc(/C=C5\SC(=S)N(CC)C5=O)c5nsnc45)cc21)C(CCCCCCCC)(CCCCCCCC)c1cc(-c2ccc(/C=C4\SC(=S)N(CC)C4=O)c4nsnc24)sc1-3

emission maximum (in C1CCOC1): 448 nm
Structure (SMILES): CC(C)(C)c1ccc(-c2c(-c3cccc(N(c4ccccc4)c4ccccc4)c3)c(C#N)c(-c3cccc(N(c4ccccc4)c4ccccc4)c3)c(-c3ccc(C(C)(C)C)cc3)c2-c2ccc(C(C)(C)C)cc2)cc1

emission maximum (in ClCCl): 423 nm
Structure (SMILES): CC(C)c1cccc(C(C)C)c1N1C(=O)c2cccc3c(Oc4ccc(Cl)cc4)ccc(c23)C1=O

emission maximum (in ClC(Cl)Cl): 396 nm
Structure (SMILES): CC(C)(C)c1ccc2oc3nc4oc5cc(-n6c7ccccc7c7ccccc76)ccc5c4cc3c2c1

emission maximum (in CO): 773 nm
Structure (SMILES): O=C(O)CCCCCn1/c(=C/C=C/C2=[N+](CCCCCC(=O)O)c3cccc4cccc2c34)c2cccc3cccc1c32

emission maximum (in ClCCl): 555 nm
emission maximum (in c1ccccc1): 521 nm
Structure (SMILES): CCCCN(CCCC)c1ccc2c#cc3cc4c#cc5ccc(C(F)(F)F)cc5c#cc#cc5cc(N(CCCC)CCCC)ccc5c#cc4cc3c#cc3ccc(C(F)(F)F)cc3c#cc#cc2c1

Structure (SMILES): O=C1c2ccc(N(c3ccc(-c4ccccc4)cc3)c3ccc(-c4ccccc4)cc3)cc2C(=O)c2ccc(N(c3ccc(-c4ccccc4)cc3)c3ccc(-c4ccccc4)cc3)cc21
emission maximum (in Cc1ccccc1): 629 nm
emission maximum [1]: 603 nm

Structure (SMILES): Cc1n[nH]c2c1C(c1ccc([N+](=O)[O-])cc1)C(C#N)=C(N)O2 (configuration not stated)
emission maximum (in C1CCOC1): 393 nm
emission maximum (in C1COCCO1): 390 nm
emission maximum (in CC#N): 407 nm
emission maximum (in CCCCO): 410 nm
emission maximum (in CCCO): 411 nm
emission maximum (in CCO): 414 nm
emission maximum (in CCOC(C)=O): 396 nm
emission maximum (in CN(C)C=O): 405 nm
emission maximum (in CO): 417 nm
emission maximum (in CS(C)=O): 404 nm
emission maximum (in Cc1ccccc1): 387 nm
emission maximum (in ClCCl): 402 nm

emission maximum (in ClCCl): 445 nm
Structure (SMILES): CCOC(=O)C1=C(C(=O)OCC)C2(c3ccccc3-c3ccccc32)[C@@H](c2ccc(Cl)cc2)C=C2c3cc(OC)c(OC)cc3CCN21

Structure (SMILES): COc1cccc(C2=c3c(c4ccc(C(C)(C)C)cc4c4cc(C(C)(C)C)ccc34)=[N+]3C2=C(c2ccccc2)c2c(-c4cccc(OC)c4)c4c5ccc(C(C)(C)C)cc5c5cc(C(C)(C)C)ccc5c4n2[B-]3(F)F)c1
emission maximum (in C1CCCCC1): 727 nm
emission maximum (in C1CCOC1): 737 nm
emission maximum (in CC#N): 721 nm
emission maximum (in Cc1ccccc1): 730 nm
emission maximum (in ClCCl): 737 nm

emission maximum (in CC#N): 423 nm
Structure (SMILES): N#Cc1nn(-c2ccccc2)nc1N1CCCC1

emission maximum (in ClC(Cl)Cl): 409 nm
Structure (SMILES): COc1ccc2cc(-c3ccccc3CC#N)c(=O)oc2c1

emission maximum (in CC#N): 380 nm
Structure (SMILES): COc1cc(C#Cc2ccccc2)c(C#Cc2ccccc2)cc1OC

Structure (SMILES): CCN1c2ccc(/C=N/Nc3ccccn3)cc2Sc2cc(-c3cccc4ccccc34)ccc21
emission maximum (in C1CCOC1): 487 nm
emission maximum (in CS(C)=O): 498 nm
emission maximum (in Cc1ccccc1): 482 nm
emission maximum (in ClCCl): 491 nm

emission maximum (in CO): 534 nm
Structure (SMILES): c1ccc(N(c2ccccc2)c2ccc(-c3ncc(-c4ccncc4)s3)cc2)cc1

emission maximum (in C1COCCO1): 455 nm
Structure (SMILES): COc1ccc(C2=N/C(=C\c3ccccc3)C(=O)N2)cc1OC

emission maximum (in CCO): 580 nm
emission maximum (in O): 594 nm
Structure (SMILES): O=C(O)COc1cccc(OCC(=O)O)c1-c1c2ccc(=[N+]3CCCCC3)cc-2oc2cc(N3CCCCC3)ccc12

emission maximum (in CN(C)C=O): 416 nm
Structure (SMILES): Cc1nc2cccc(-c3nc4ccccc4s3)c2c(=O)[nH]1

emission maximum (in ClC(Cl)Cl): 405 nm
Structure (SMILES): CCc1ccc(-n2c3ccccc3c3cc4c(cc32)c2ccccc2n4-c2ccc(CC)s2)s1

Source: the Deep4Chem optical property database
